“Also recorded” adds a separate entry of the source.
Key:
human RAD51 [1] = target: T1, human RAD51 (Homo sapiens, UniProt Q06609); experiment: Strand invasion (D-loop) assay; format: biochemical; settings: 0.8 μM RAD51; buffer that does not support joint molecule formation (1 mM ATP, 1 mM MgOAc)
T1 sequence (Q06609 1-339): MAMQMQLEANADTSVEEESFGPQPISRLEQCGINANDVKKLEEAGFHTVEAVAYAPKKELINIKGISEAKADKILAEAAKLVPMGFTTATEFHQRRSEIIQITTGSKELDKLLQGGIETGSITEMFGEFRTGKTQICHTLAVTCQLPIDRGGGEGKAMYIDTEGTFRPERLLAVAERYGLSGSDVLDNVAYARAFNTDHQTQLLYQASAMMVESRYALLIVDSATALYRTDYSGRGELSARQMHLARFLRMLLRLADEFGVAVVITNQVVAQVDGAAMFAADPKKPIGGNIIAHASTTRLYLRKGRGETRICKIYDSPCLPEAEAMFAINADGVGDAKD
Description: FIGS. 6A-6B. Schematic of the strand invasion (D-loop) assay.
(§1) Conditions with scRAD51 additionally contained 110 nM scRAD54.

yeast DMC1 = target: T2, yeast DMC1 (Saccharomyces cerevisiae, UniProt P25453); experiment: Strand invasion (D-loop) assay with DMC1 in place of RAD51; format: biochemical
T2 sequence (P25453 1-334): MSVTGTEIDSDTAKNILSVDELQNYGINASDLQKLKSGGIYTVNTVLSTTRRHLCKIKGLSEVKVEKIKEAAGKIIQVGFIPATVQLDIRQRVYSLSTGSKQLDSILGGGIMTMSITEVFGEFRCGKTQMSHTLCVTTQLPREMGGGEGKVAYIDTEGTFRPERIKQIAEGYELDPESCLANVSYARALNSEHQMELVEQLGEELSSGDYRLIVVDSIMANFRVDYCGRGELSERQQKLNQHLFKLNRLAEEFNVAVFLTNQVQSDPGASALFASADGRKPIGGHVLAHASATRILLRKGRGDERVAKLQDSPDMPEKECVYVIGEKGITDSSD
Description: as §1

[2] = target: RecA protein (the bacterial ortholog of RAD51) (Escherichia coli, UniProt P0A7G6); settings: RecA in place of RAD51
RecA protein (the bacterial ortholog of RAD51), sequence (P0A7G6 2-353): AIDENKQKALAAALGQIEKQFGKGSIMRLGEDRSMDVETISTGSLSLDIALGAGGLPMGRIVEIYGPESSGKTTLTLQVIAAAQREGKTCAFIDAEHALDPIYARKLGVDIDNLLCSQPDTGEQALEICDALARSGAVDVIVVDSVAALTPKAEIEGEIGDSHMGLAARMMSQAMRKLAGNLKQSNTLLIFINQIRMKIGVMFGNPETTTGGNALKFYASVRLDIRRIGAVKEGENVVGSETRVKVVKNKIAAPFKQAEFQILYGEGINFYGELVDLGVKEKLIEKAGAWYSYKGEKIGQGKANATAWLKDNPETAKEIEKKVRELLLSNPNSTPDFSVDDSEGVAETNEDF
Description: RAD51 filament formation can also be studied using oligonucleotides that are end-labeled with a fluorescent tag. Binding of proteins to this substrate DNA can be detected as an increase in anisotropy (or polarization) of the fluorescent tag. […] In this example, this method was modified so that very small sample volumes (30 μl) can be monitored in a high-throughput scale, using 384-well plates and a fluorescent plate reader. […] By varying the amount of substrate DNA, a threshold of approximately 0.1 μM RAD51 protein is required for in vitro filament formation in this system.
A naïve 10,000 compound library of small molecules (Chembridge DIVERSet collection) was screened. A ‘mixed compound’ screening strategy was used, wherein each reaction tested a mixture of 8 compounds.

human RAD51 [3] = target: T1, human RAD51; experiment: Fluorescence polarization assay for RAD51 filament formation on fluorescein-labeled oligonucleotide; format: biochemical
Description: FIGS. 2A-2B. FIG. 2A, top: Schematic of protein filament formation monitored in vitro using a fluorescence polarization assay. FIG. 2A, bottom: Purified RAD51 protein (wild type or mutant F86E) were serially diluted. RecA (New England Biolabs) was used as a positive control. Proteins were added to a 5′terminal fluorescein conjugated oligonucleotide (45 bases of dT) at a 1 μM nucleotide concentration. The mixture was incubated at 37° C. for 30 minutes in 384-well plates containing a reaction buffer (30 mM Tris/acetate pH 7.5, 10 mM Mg^2+/acetate, 2 mM ATP, 0.1 mM DTT, 0.5 μM BSA). Fluorescence polarization was measured with a plate reader (filters: excitation=485 nm, emission=510 nm). FIG. 2B, top: Varying concentrations of 5′terminal fluorescein conjugated oligonucleotide were used to determine the threshold RAD51 concentration.
The assay of Example 2 was used to serve in the screen of a small-molecule chemical library for compounds that stimulate RAD51 filament formation. […] Multiple positive (+RAD51) and negative […] controls were tested, and these readings were tested using the statistical method described by Zhang et al. (1999), which evaluates the suitability of an HT assay. The assay as described has a Z-factor of 0.82, validating it as an excellent assay for HT screening.
The assay of Example 2 was used to serve in the screen of a small-molecule chemical library for compounds that inhibit RAD51 filament formation. […] FP readings were very reproducible with reaction volumes in the 10-100 μl range, and 100 μl was typically used. […] The assay was optimized such that the positive control FP reading was ˜50% of maximal reaction saturation; the RAD51 protein concentration was 0.3 uM and the fluorescein-labeled DNA is at 0.1 uM (nucleotide concentration). […] The average FP readings for positive control and negative control are 344 mP (SD=13.4) and 27 mP (SD=5.3), respectively. These readings were tested using the statistical method described by Zhang et al, which evaluates the suitability of an HT assay (Zhang et al., 1999). […]

[4] = tested on: chicken lymphocyte DT40 cells; experiment: Clonogenic survival study in the presence of radiation; format: cell-based; settings: compound added about 30 minutes after irradiation, 24 hours
Description: Single chicken lymphocyte DT40 cells were irradiated. Thirty minutes later, they were incubated with compound 45488 (also called compound 5253121) for 24 hours. Single cells were then plated (100, 1000, or 10000) in 6-well plates in media. Because DT40 cells are not adherent to plastic surfaces, the media included methylcellulose to provide viscosity. After 7-10 days, the resulting colonies are counted, and survival is reported as a colony-forming ability relative to un-irradiated cells.

bacterial RecA = bacterial RecA (Escherichia coli, UniProt P0A7G6)
bacterial RecA, sequence (P0A7G6 whole entry): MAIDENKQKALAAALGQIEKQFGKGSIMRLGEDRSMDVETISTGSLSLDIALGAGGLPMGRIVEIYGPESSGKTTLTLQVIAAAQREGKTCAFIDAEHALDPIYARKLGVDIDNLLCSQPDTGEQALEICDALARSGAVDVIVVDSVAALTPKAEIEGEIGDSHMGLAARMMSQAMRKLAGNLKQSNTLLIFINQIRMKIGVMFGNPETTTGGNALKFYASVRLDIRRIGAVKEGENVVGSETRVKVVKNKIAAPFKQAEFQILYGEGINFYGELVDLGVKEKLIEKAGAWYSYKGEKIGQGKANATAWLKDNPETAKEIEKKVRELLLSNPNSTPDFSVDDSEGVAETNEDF
Description: Briefly, 15 μl reaction volumes included a DNA strand exchange protein (0.8 μM) that was pre-incubated for 5 min at 37° C. with 1 μM (nucleotide concentration) ^32P-labeled oligonucleotide in a reaction buffer containing 20 mM Hepes (pH 7.5), 1 mM DTT, 2 mM nucleotide cofactor, and 1 mM MgCl2, and various concentrations of RS-1. For experimental buffer conditions that included calcium, 1 mM CaCl2 was present in addition to (in the case of hRAD51) or in the place of (in the case of RecA and scRAD51) the 1 mM MgCl2. Conditions with scRAD51 additionally contained 110 nM scRAD54. Following this initial binding reaction, 10 μl of 19.75 μM (base pair concentration) supercoiled homolog-containing target plasmid DNA (pRS306) was next added along with sufficient magnesium acetate to give a final concentration of 10 mM. DNA substrates were allowed form a homology dependent association (or ‘D-loop’), and reactions were stopped with SDS and proteinase K. The resulting DNA was separated on 1.3% agarose gels, transferred onto nitrocellulose membranes, analyzed by phosphorimaging, and quantified with ImageJ 1.37v software (NIH).
These experiments were repeated using other recombinase proteins (bacterial RecA and yeast DMC1) in the place of human RAD51.

Compound: O=C(Nc1ccc(Br)cc1)c1ccc(Br)c(S(=O)(=O)NCc2ccccc2)c1 [compound 45488]
- joint molecule formation / DNA strand invasion activity of RAD51 (human RAD51 [1]): capable of stimulating DNA strand invasion activity of RAD51; also recorded: concentration dependent increase in joint molecule formation
- effect on strand invasion by DMC1 (yeast DMC1): some inhibition
- stimulation of RecA filament formation [2]: no stimulation of filament formation
- stability of RAD51 filaments in high salt (human RAD51 [3]; buffers containing high salt concentrations): protects these filaments from buffers containing high salt concentrations; also recorded: stabilizes RAD51 filaments in the presence of high salt concentrations
- effect on RAD51 filament formation (human RAD51 [3]; compound at 20 μM): enhances filament formation
- effect on RAD51 filament formation (human RAD51 [3]; further study): enhances RAD51 filament formation
- protection of cells from radiation (colony-forming ability) [4]: protects the cells from radiation damage
- effect on strand invasion by RecA (bacterial RecA): no effect

Reference: US9198914B2, “Methods and compositions for modulating RAD51 and homologous recombination” (The University of Chicago, priority 2007, dated 2015)
